The subject of assay [1] is lung (H460) tumor cell line. The experiment in a line: Methylene Blue Growth Inhibition Assay, H460. It is filed as cell-based. The following applies: Homo sapiens, NCI-H460, 72 h; H460, 3 days; read-out: MeB Cell Line IC50. An excerpt: (§1) II. Methylene Blue Growth Inhibition Assay
(§2) Medium was removed by aspiration.

In assay [2] the test system is colon (HCT116) tumor cell line. The experiment in a line: Methylene Blue Growth Inhibition Assay, HCT116. Format: cell-based. The following applies: Homo sapiens, HCT-116, 72 h; HCT116, 3 days; read-out: MeB Cell Line IC50.
Description: as §1, §2

The test system of assay [3] is Normal Human foreskin fibroblasts (HFF). In words: Methylene Blue Growth Inhibition Assay, HFF. Format: cell-based. The following applies: 72 h, 3 days, read-out: MeB Cell Line IC50.
Description: as §1, §2

Assay [4] relates to breast tumor (MCF7) cell line. In words: Methylene Blue Growth Inhibition Assay, MCF7. The following applies: Homo sapiens, 72 h; MCF7, 3 days; read-out: MeB Cell Line IC50. Format: cell-based.
Description: as §1, §2

In assay [5] the test system is prostate (PC3) tumor cell line. In words: Methylene Blue Growth Inhibition Assay, PC3. The settings on record: Homo sapiens, 72 h; PC3, 3 days; read-out: MeB Cell Line IC50. It is filed as cell-based.
Description: as §1, §2

Assay [6] relates to colon (RKO) tumor cell line. The experiment in a line: Methylene Blue Growth Inhibition Assay, RKO. It is filed as cell-based. The settings on record: Homo sapiens, 72 h, 3 days, read-out: MeB Cell Line IC50.
Description: as §1, §2

Assay [7] has as its target T1, truncated human PLK1 (kinase domain) (Homo sapiens, UniProt P53350).
T1 construct: made in house; host or cells: baculovirus-infected T. ni insect cells
In words: Assay for Inhibition of PLK1 (33P SPA enzyme activity). Format: biochemical. The settings on record: 1 μM ATP, 2 nM enzyme; read-out: Ave pIC50 PLK Enzyme Inhibition (converted). As to the method: I. Assay for Inhibition of PLK1
A. Preparation of 6× N-Terminal His-Tagged PLK Kinase Domain
All procedures are performed at 4° C. Cells are lysed in 25 mM HEPES, 200 mM NaCl, 25 mM imidazole; pH 8.0. The homogenate is centrifuged at 14K rpm in a SLA-1500 rotor for 40 min and the supernatant filtered through a 1.2 micron filter. The supernatant is loaded onto a Nickel chelating Sepharose (Amersham Pharmacia) column and washed with 25 mM HEPES, 500 mM NaCl, 25 mM imidazole; pH 8.0. […] PLK is concentrated using a 10 kDa molecular weight cutoff membrane and then loaded onto a Superdex 75 gel filtration (Amersham BioSciences) column equilibrated in 25 mM HEPES, 1 mM DTT, 500 mM NaCl; pH 8.0. Fractions containing PLK are determined by SDS-PAGE. PLK is pooled, aliquoted and stored at […]. Samples are quality controlled using mass spectrometry.
B. Enzyme Activity±Inhibitors is Determined As Follows:
Compounds are added to the plate (1 μL in 100% DMSO).
Immediately upon addition of enzyme and thorough mixing, add 20 uL per well into 384-well white plates containing compounds and controls. […] The enzymatic reaction is stopped with 50 μl of bead mix (50 mM EDTA, 2 mg/ml Streptavidin-coated SPA beads in Standard Dulbecco's PBS (without Mg^2+and Ca^2+), and 60 μM ATP).

T1 sequence (P53350 21-346): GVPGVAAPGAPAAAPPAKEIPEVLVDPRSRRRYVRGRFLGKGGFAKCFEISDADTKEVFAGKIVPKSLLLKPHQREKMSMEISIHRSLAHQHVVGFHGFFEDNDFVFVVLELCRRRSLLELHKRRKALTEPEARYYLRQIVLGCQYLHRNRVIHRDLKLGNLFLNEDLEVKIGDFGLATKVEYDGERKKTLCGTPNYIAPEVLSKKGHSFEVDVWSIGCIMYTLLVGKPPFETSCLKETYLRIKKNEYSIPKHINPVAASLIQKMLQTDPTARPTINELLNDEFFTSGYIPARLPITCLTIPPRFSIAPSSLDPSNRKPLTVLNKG

For the compound `COc1cc(Nc2ncc3c(C)nc(-c4cccc(C(F)(F)F)c4)n3n2)cc(OC)c1OC` [Example 5, 5-Methyl-7-[3-(trifluoromethyl)phenyl]-N-(3,4,5-trimethoxyphenyl)-imidazo[5,1-f][1,2,4]triazin-2-amine], the IC50 in assay [1], in assay [2], in assay [3], in assay [4], in assay [5] and in assay [6] was 1 to 10 µM throughout.
In the case of `COc1cc(Nc2ncc3c(C)nc(-c4cccc(C#N)c4)n3n2)cc(OC)c1OC` [Example 8, 3-{5-Methyl-2-[(3,4,5-trimethoxyphenyl)amino]imidazo[5,1-f][1,2,4]triazin-7-yl}benzonitrile], the IC50 is less than 0.1 µM in assay [7]; 10 to 30 µM in assay [1]; 10 to 30 µM in assay [2]; 10 to 30 µM in assay [3]; 10 to 30 µM in assay [4]; 10 to 30 µM in assay [5]. In addition, in assay [6], the IC50 fell in the range of 10 to 30 µM.
For `COc1cc(Nc2ncc3c(C)nc(-c4cccc(Br)c4)n3n2)cc(OC)c1OC` [Example 9, 7-(3-Bromophenyl)-5-methyl-N-(3,4,5-trimethoxyphenyl)imidazo-[5,1-f][1,2,4]triazin-2-amine], the IC50 is less than 0.1 µM in assay [7]; 1 to 10 µM in assay [1]; 1 to 10 µM in assay [2]; 10 to 30 µM in assay [3]; 1 to 10 µM in assay [4]; 10 to 30 µM in assay [5]. In addition, in assay [6], the IC50 fell in the range of 1 to 10 µM.
For `COc1cc(Nc2ncc3c(C)nc(-c4cccc(C(N)=O)c4)n3n2)cc(OC)c1OC` [Example 16, 3-{5-Methyl-2-[(3,4,5-trimethoxyphenyl)amino]imidazo[5,1-f][1,2,4]triazin-7-yl}benzamide], the IC50 in assay [7] is 0.1 to 10 µM; in assay [1], 10 to 30 µM; in assay [2] it was 10 to 30 µM; in assay [3] it was 10 to 30 µM; in assay [4], 10 to 30 µM; in assay [5] it was 10 to 30 µM. Also, the IC50 in assay [6] lay in the range of 10 to 30 µM.
With `Cc1nc(-c2ccccc2)n2nc(Nc3cccc(CCO)c3)ncc12` [Example 19, 2-{3-[(5-Methyl-7-phenylimidazo[5,1-f][1,2,4]triazin-2-yl)amino]phenyl}ethanol], the IC50 was less than 0.1 µM in assay [7]; 1 to 10 µM in assay [1]; 1 to 10 µM in assay [2]; 10 to 30 µM in assay [3]; 1 to 10 µM in assay [4]; 10 to 30 µM in assay [5]. In assay [6], the IC50 was 1 to 10 µM.
Take `COc1cc(Nc2ncc3c(C)nc(-c4ccccc4O)n3n2)cc(OC)c1OC` [Example 22, 2-{5-Methyl-2-[(3,4,5-trimethoxyphenyl)amino]imidazo[5,1-f][1,2,4]triazin-7-yl}phenol]: the IC50 in assay [7] was 0.1 to 10 µM; in assay [1], 10 to 30 µM; in assay [2], 10 to 30 µM; in assay [3], 10 to 30 µM; in assay [4], 10 to 30 µM; in assay [5] it was 10 to 30 µM. Besides, the IC50 in assay [6] is 10 to 30 µM.
Regarding `COc1ccc(Nc2ncc3c(C)nc(-c4cccs4)n3n2)cc1` [Example 83, 5-Methyl-N-[4-(methyloxy)phenyl]-7-(2-thienyl)imidazo[5,1-f][1,2,4]triazin-2-amine], the IC50 in assay [7] was 0.1 to 10 µM.
On the same count and under the same terms, then `COc1ccc(Nc2ncc3c(C)nc(C4CC4)n3n2)cc1` [Example 84, 7-Cyclopropyl-5-methyl-N-[4-(methyloxy)phenyl]-imidazo[5,1-f][1,2,4]triazin-2-amine], with 0.1 to 10 µM; and `COc1ccc(Nc2ncc3c(C)nc(C4CCCCC4)n3n2)cc1` [Example 85, 7-Cyclohexyl-5-methyl-N-[4-(methyloxy)phenyl]imidazo[5,1-f][1,2,4]triazin-2-amine], with 0.1 to 10 µM; and `COc1ccc(Nc2ncc3c(C)nc(-c4ccccc4F)n3n2)cc1` [Example 86, 7-(2-FluorophenylFluorophenyl)-5-methyl-N-[4-(methyloxy)phenyl]imidazo[5,1-f][1,2,4]triazin-2-amine], with 0.1 to 10 µM.
With `COc1ccc(Nc2ncc3c(C)nc(-c4ccc(OC)cc4)n3n2)cc1` [Example 87, 5-Methyl-N,7-bis[4-(methyloxy)phenyl]imidazo[5,1-f][1,2,4]triazin-2-amine], the IC50 in assay [7] is 0.1 to 10 µM.
Consider `COc1ccc(Nc2ncc3c(C)nc(Cc4ccccc4)n3n2)cc1` [Example 88, 5-Methyl-N-[4-(methyloxy)phenyl]-7-(phenylmethyl)imidazo[5,1-f][1,2,4]triazin-2-amine], for which the IC50 in assay [7] is 0.1 to 10 µM.
Still for that read-out and setting: with `COc1ccc(Nc2ncc3c(C)nc(-c4cccc(F)c4)n3n2)cc1` [Example 89, 7-(3-Fluorophenyl)-5-methyl-N-[4-(methyloxy)phenyl]imidazo[5,1-f][1,2,4]triazin-2-amine] the figure was 0.1 to 10 µM; with `COc1cc(Nc2ncc3c(C)nc(C4CCCCC4)n3n2)cc(OC)c1OC` [Example 90, 7-Cyclohexyl-5-methyl-N-[3,4,5-tris(methyloxy)phenyl]imidazo[5,1-f][1,2,4]triazin-2-amine], 0.1 to 10 µM; with `COc1ccc(Nc2ncc3c(C)nc(CC4CCCCC4)n3n2)cc1` [Example 91, 7-(Cyclohexylmethyl)-5-methyl-N-[4-(methyloxy)phenyl]-imidazo[5,1-f][1,2,4]triazin-2-amine], 0.1 to 10 µM.
On the same count and under the same terms, with `COc1ccc(Nc2ncc3c(C)nc(-c4ccccc4)n3n2)cc1OC` [Example 92, N-[3,4-Bis(methyloxy)phenyl]-5-methyl-7-phenylimidazo[5,1-f][1,2,4]triazin-2-amine] the figure was 0.1 to 10 µM; with `COc1cc(Nc2ncc3c(C)nc(-c4ccccc4)n3n2)cc(OC)c1` [Example 93, N-[3,5-Bis(methyloxy)phenyl]-5-methyl-7-phenylimidazo[5,1-f][1,2,4]triazin-2-amine], 0.1 to 10 µM; with `CC(=O)Nc1ccc(Nc2ncc3c(C)nc(-c4ccccc4)n3n2)cc1` [Example 94, N-{4-[(5-Methyl-7-phenylimidazo[5,1-f][1,2,4]triazin-2-yl)amino]phenyl}acetamide], 0.1 to 10 µM.
On the same count and under the same terms, then `CSc1ccc(Nc2ncc3c(C)nc(-c4ccccc4)n3n2)cc1` [Example 95, 5-Methyl-N-[4-(methylthio)phenyl]-7-phenylimidazo[5,1-f][1,2,4]triazin-2-amine], with 0.1 to 10 µM.
`Cc1nc(-c2ccccc2)n2nc(Nc3ccc(OCCN(C)C)cc3)ncc12` [Example 96, N-(4-{[2-(Dimethylamino)ethyl]oxy}phenyl)-5-methyl-7-phenylimidazo[5.1-f][1,2,4]triazin-2-amine]: the IC50 in assay [7] was 0.1 to 10 µM.
Still for that read-out and setting: with `CC(=O)N1CCc2cc(Nc3ncc4c(C)nc(-c5ccccc5)n4n3)ccc21` [Example 99, N-(1-Acetyl-2,3-dihydro-1H-indol-5-yl)-5-methyl-7-phenylimidazo[5,1-f][1,2,4]triazin-2-amine] the figure was 0.1 to 10 µM.
Take `Cc1nc(-c2ccccc2)n2nc(NC3CCCCC3)ncc12` [Example 100, N-Cyclohexyl-5-methyl-7-phenylimidazo[5,1-f][1,2,4]triazin-2-amine]: the IC50 in assay [7] is greater than 10 µM.
On the same count and under the same terms, with `Cc1nc(-c2ccccc2)n2nc(NC3CCOCC3)ncc12` [Example 101, 5-Methyl-7-phenyl-N-(tetrahydro-2H-pyran-4-yl)imidazo[5,1-f][1,2,4]triazin-2-amine] the figure was greater than 10 µM; with `Cc1nc(-c2ccccc2)n2nc(Nc3ccc(OCCN4CCOCC4)cc3)ncc12` [Example 102, 5-Methyl-N-(4-{[2-(4-morpholinyl)ethyl]oxy}phenyl)-7-phenylimidazo[5,1-f][1,2,4]triazin-2-amine], 0.1 to 10 µM.
Take `COc1ccc(Nc2ncc3c(C)nc(-c4ccccc4)n3n2)cc1` [Example 104, 5-Methyl-N-[4-(methyloxy)phenyl]-7-phenylimidazo[5,1-f][1,2,4]triazin-2-amine]: in assay [7], the IC50 is 0.1 to 10 µM.
On the same count and under the same terms, with `Cc1nc(-c2ccccc2)n2nc(Nc3ccccc3)ncc12` [Example 105, 5-Methyl-N,7-diphenylimidazo[5,1-f][1,2,4]triazin-2-amine] the figure was 0.1 to 10 µM.
The same measure, in the same setting: then `COc1cccc(Nc2ncc3c(C)nc(-c4ccccc4)n3n2)c1` [Example 106, 5-Methyl-N-[3-(methyloxy)phenyl]-7-phenylimidazo[5,1-f][1,2,4]triazin-2-amine], with 0.1 to 10 µM.
